In the NIST ThermoML archive (doi:10.1021/je700438d):

Assay: mn = molality of the nth substance listed, in mol/kg
Conditions: Liquid, Vibrating tube method

[Cl-].[Li+] [lithium chloride] + CCO
mass density [kg/m3]
Conditions	348.15 K	373.15 K
290 kPa, m1 = 0.1049	–	717.74
310 kPa, m1 = 0.3023	–	725.29
320 kPa, m1 = 2.022	–	781.71
840 kPa, m1 = 1.222	–	757.56
960 kPa, m1 = 0.5873	–	736.55
980 kPa, m1 = 2.88	–	805.91
5060 kPa, m1 = 0.3023	–	731.82
5060 kPa, m1 = 1.222	–	762.98
5140 kPa, m1 = 0.1049	–	724.52
5140 kPa, m1 = 2.88	–	810.39
5420 kPa, m1 = 0.5873	–	742.51
5860 kPa, m1 = 2.022	–	788.43
9980 kPa, m1 = 2.88	–	815.52
10060 kPa, m1 = 1.222	–	769.02
10070 kPa, m1 = 0.3023	–	738.32
10080 kPa, m1 = 0.1049	–	731.05
10090 kPa, m1 = 0.5873	–	748.41
10090 kPa, m1 = 2.022	–	793.18
14620 kPa, m1 = 2.88	–	819.69
15020 kPa, m1 = 0.3023	–	744.36
15420 kPa, m1 = 0.1049	–	737.69
15720 kPa, m1 = 2.022	–	799
15740 kPa, m1 = 1.222	–	775.35
15850 kPa, m1 = 0.5873	–	755.19
20080 kPa, m1 = 0.1049	–	743.13
20090 kPa, m1 = 0.3023	772.2	–
20090 kPa, m1 = 0.5873	–	759.84
20140 kPa, m1 = 1.222	800.25	–
20310 kPa, m1 = 0.3023	–	750.38
20310 kPa, m1 = 2.022	–	803.31
20340 kPa, m1 = 1.222	–	780.06
20480 kPa, m1 = 0.5873	781.78	–
21420 kPa, m1 = 2.88	–	825.53
24940 kPa, m1 = 2.88	–	828.37
25050 kPa, m1 = 2.022	–	807.37
25070 kPa, m1 = 1.222	804.33	–
25080 kPa, m1 = 1.222	–	784.55
25320 kPa, m1 = 0.5873	786.04	–
25410 kPa, m1 = 0.1049	–	748.94
25410 kPa, m1 = 0.3023	–	755.77
25420 kPa, m1 = 2.022	826.11	–
25640 kPa, m1 = 2.88	846.96	–
25840 kPa, m1 = 0.1049	770.86	–
25840 kPa, m1 = 0.5873	–	765.68
25860 kPa, m1 = 0.3023	777.45	–
30060 kPa, m1 = 0.3023	781.03	760.33
30060 kPa, m1 = 2.022	–	811.2
30150 kPa, m1 = 0.5873	–	769.7
30150 kPa, m1 = 2.88	–	832.41
30160 kPa, m1 = 2.022	829.46	–
30410 kPa, m1 = 1.222	808.41	–
30610 kPa, m1 = 0.5873	790.37	–
30710 kPa, m1 = 0.1049	775.12	–
30840 kPa, m1 = 2.88	850.58	–
35190 kPa, m1 = 2.88	853.39	–
35240 kPa, m1 = 0.1049	778.84	–
35420 kPa, m1 = 1.222	811.91	–
35610 kPa, m1 = 2.022	832.94	–
35840 kPa, m1 = 0.3023	785.62	–
35840 kPa, m1 = 0.5873	794.33	–
39860 kPa, m1 = 0.5873	797.14	–
39860 kPa, m1 = 2.88	856.19	–
39930 kPa, m1 = 0.1049	782.45	–
39940 kPa, m1 = 0.3023	788.64	–
39960 kPa, m1 = 2.022	835.44	–
39970 kPa, m1 = 1.222	814.81	–
